Reference: US20200131156A1, “ARYLSULFONYLPYROLECARBOXAMIDE DERIVATIVES AS Kv3 POTASSIUM CHANNEL ACTIVATORS” (H. Lundbeck A/S, priority 2018, published 2020)

Tested on: fast-spiking interneurons (FSI)
Assay: Hippocampal brain slice voltage clamp recording, outward K+ current from FSI
Type: cell-based, rat
Settings: 10 μM; for Outward current in presence of compound relative to baseline: step to 0 mV, baseline 100%
Protocol: Male Sprague Dawley rats (18˜24 days old) from Shanghai Laboratory Animal Center (Shanghai, China) were used for brain slice experiments. They were housed in groups of five in controlled conditions (temperature of 23±3° C., humidity of 40-70%, and 12:12 light-dark cycle with lights on at 5:00 am) and free access to food and water. All procedures were conducted in agreement with the guideline of Institutional Animal Care and Use Committee at ChemPartner. Ethical approval was obtained by the The Danish Animal Experimentation Inspectorate (journal no. 2014 15 0201 00339).
Animals were decapitated by a guillotine and their brains quickly removed and placed in ice-cold modified artificial cerebral spinal fluid (ACSF) containing (in mM): 110 sucrose, 60 NaCl, 3 KCl, 5 glucose, 28 NaHCO3, 1.25 NaH2PO4, 0.5 CaCl2 and 7 MgCl2, aerated with 95% O2/5% CO2. The brains were block-trimmed and glued onto the stage of a vibratome (VT1200S, Leica Microsystems Inc., Bannockburn, Ill., USA). Parasagittal hippocampal slices (300 μm) were cut and incubated in the regular carbogenated ACSF containing (in mM): 119 NaCl, 2.5 KCl, 1.2 Na2HPO4, 25 NaHCO3, 2.5 CaCl2, 1.3 MgCl2, 10 glucose at 35° C. for the first 60 min and then transferred to room temperature prior to recordings.
In the hippocampal CA1 pyramidal cell layer, fast-spiking interneurons (FSI) or pyramidal (PYR) cells were visualized using differential interference contrast-infrared (DIC-IR)-assisted microscopy and whole-cell patch clamp recordings performed using an Axon Multiclamp 700B amplifier (Molecular Devices, Union City, Calif.). FSI were selected based on non-pyramidal shape and multipolar dendrites. […]
Whole cell patch clamp recordings in voltage clamp mode were used to study the outward K^+ current from FSI or PYR cells. […] Outward K^+ current was recorded in the presence of 1 μM TTX and 10 μM DNQX in the ACSF to inhibit voltage-gated Na^+ channels and AMPA channels, respectively. […] For all recordings, the access resistance was monitored throughout the experiments. […]

| Compound | Outward current in presence of compound relative to baseline | Reversibility of compound-mediated increase in outward K+ current (Wash) |
| --- | --- | --- |
| Cc1ccc(S(=O)(=O)n2ccc(C(=O)NCc3ncco3)c2)cc1 [Compound 86, 1-(4-methylbenzene-1-sulfonyl)-N-[(1,3-oxazol-2-yl)methyl]-1H-pyrrole-3-carboxamide] | 121±2% | – |
| Cc1cnc(CNC(=O)c2ccn(S(=O)(=O)c3ccc(F)cc3C)c2)cn1 [Compound 90, 1-(4-fluoro-2-methylbenzene-1-sulfonyl)-N-[(5-methylpyrazin-2-yl)methyl]-1H-pyrrole-3-carboxamide] | 144±4% | largely reversible |
